# US8329717B2, “Pyrimidine derivatives and their use for controlling undesired plant growth” (Bayer Cropscience AG, priority 2008, dated 2012)
# Assays:
# Amaranthus retroflexus [1] = assay: Pre-emergence herbicidal effect; assay type: in vivo; settings: Dosage 320 g/ha, visual scoring after 3 weeks vs untreated controls, 100% = plants have died
# How it was run: (§1)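 Seeds in sandy loam; WP or EC formulations sprayed onto covering soil at 600 to 800 l/ha water with 0.2% wetting agent, dosage in g/ha. Greenhouse-grown, visually scored at 3 weeks against untreated controls (100% = dead, 0% = as control).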
# Echinochloa crus-galli [2] = assay: Pre-emergence herbicidal effect; assay type: in vivo; settings: Dosage 320 g/ha, visual scoring after 3 weeks vs untreated controls, 100% = plants have died
# How it was run: as §1
# Polygonum convolvulus [3] = assay: Pre-emergence herbicidal effect; assay type: in vivo; settings: Dosage 320 g/ha, visual scoring after 3 weeks vs untreated controls, 100% = plants have died
# How it was run: as §1
# Alopecurus myosuroides [4] = assay: Pre-emergence herbicidal effect; assay type: in vivo; settings: Dosage 320 g/ha, visual scoring after 3 weeks vs untreated controls, 100% = plants have died
# How it was run: as §1
# Lolium multiflorum [5] = assay: Pre-emergence herbicidal effect; assay type: in vivo; settings: Dosage 320 g/ha, visual scoring after 3 weeks vs untreated controls, 100% = plants have died
# How it was run: as §1
# Matricaria inodora [6] = assay: Pre-emergence herbicidal effect; assay type: in vivo; settings: Dosage 320 g/ha, visual scoring after 3 weeks vs untreated controls, 100% = plants have died
# How it was run: as §1
# Setaria viridis [7] = assay: Pre-emergence herbicidal effect; assay type: in vivo; settings: Dosage 320 g/ha, visual scoring after 3 weeks vs untreated controls, 100% = plants have died
# How it was run: as §1
# Stellaria media [8] = assay: Pre-emergence herbicidal effect; assay type: in vivo; settings: Dosage 320 g/ha, visual scoring after 3 weeks vs untreated controls, 100% = plants have died
# How it was run: as §1
# Avena fatua [9] = assay: Pre-emergence herbicidal effect; assay type: in vivo; settings: Dosage 320 g/ha, visual scoring after 3 weeks vs untreated controls, 100% = plants have died
# How it was run: as §1
# Viola tricolor [10] = assay: Pre-emergence herbicidal effect; assay type: in vivo; settings: Dosage 320 g/ha, visual scoring after 3 weeks vs untreated controls, 100% = plants have died
# How it was run: as §1
# Veronica persica [11] = assay: Pre-emergence herbicidal effect; assay type: in vivo; settings: Dosage 320 g/ha, visual scoring after 3 weeks vs untreated controls, 100% = plants have died
# How it was run: as §1
# Amaranthus retroflexus [12] = assay: Post-emergence herbicidal effect; assay type: in vivo; settings: Dosage 320 g/ha, one-leaf stage, visual scoring after ca. 3 weeks vs untreated controls, 100% = plants have died
# Description: (§2) The following abbreviations are used in the tables below: [table] 2. Post-Emergence Herbicidal Effect and Crop Plant Compatibility Seeds of monocotyledonous or dicotyledonous weed plants or crop plants are planted in wood-fiber pots in sandy loam, covered with earth and grown in a greenhouse under good growth conditions. 2 to 3 weeks after sowing, the test plants are treated in the one-leaf stage. The compounds according to the invention, formulated in the form of wettable powders (WP) or as emulsion concentrates (EC), are then sprayed onto the green plant parts as aqueous suspension or emulsion at a water application rate of 600 to 800 l/ha (converted) with the addition of 0.2% of wetting agent. The dosage of the compounds according to the invention is given in grams per hectare. After ca. 3 weeks' standing time of the test plants in the greenhouse under optimum growth conditions, the effect of the preparations is scored visually in comparison with untreated controls (herbicidal effect in percent (%): 100% effect=plants have died, 0% effect=as control plants).
# Echinochloa crus-galli [13] = assay: Post-emergence herbicidal effect; assay type: in vivo; settings: Dosage 320 g/ha, one-leaf stage, visual scoring after ca. 3 weeks vs untreated controls, 100% = plants have died
# Description: as §2
# Polygonum convolvulus [14] = assay: Post-emergence herbicidal effect; assay type: in vivo; settings: Dosage 320 g/ha, one-leaf stage, visual scoring after ca. 3 weeks vs untreated controls, 100% = plants have died
# Description: as §2
# Alopecurus myosuroides [15] = assay: Post-emergence herbicidal effect; assay type: in vivo; settings: Dosage 320 g/ha, one-leaf stage, visual scoring after ca. 3 weeks vs untreated controls, 100% = plants have died
# Description: as §2
# Lolium multiflorum [16] = assay: Post-emergence herbicidal effect; assay type: in vivo; settings: Dosage 320 g/ha, one-leaf stage, visual scoring after ca. 3 weeks vs untreated controls, 100% = plants have died
# Description: as §2
# Matricaria inodora [17] = assay: Post-emergence herbicidal effect; assay type: in vivo; settings: Dosage 320 g/ha, one-leaf stage, visual scoring after ca. 3 weeks vs untreated controls, 100% = plants have died
# Description: as §2
# Setaria viridis [18] = assay: Post-emergence herbicidal effect; assay type: in vivo; settings: Dosage 320 g/ha, one-leaf stage, visual scoring after ca. 3 weeks vs untreated controls, 100% = plants have died
# Description: as §2
# Stellaria media [19] = assay: Post-emergence herbicidal effect; assay type: in vivo; settings: Dosage 320 g/ha, one-leaf stage, visual scoring after ca. 3 weeks vs untreated controls, 100% = plants have died
# Description: as §2
# Avena fatua [20] = assay: Post-emergence herbicidal effect; assay type: in vivo; settings: Dosage 320 g/ha, one-leaf stage, visual scoring after ca. 3 weeks vs untreated controls, 100% = plants have died
# Description: as §2
# Veronica persica [21] = assay: Post-emergence herbicidal effect; assay type: in vivo; settings: Dosage 320 g/ha, one-leaf stage, visual scoring after ca. 3 weeks vs untreated controls, 100% = plants have died
# Description: as §2
# [22] = logp (HCOOH), chemicophysical data
# Abutilon theophrasti [23] = assay: Pre-emergence herbicidal effect; assay type: in vivo; settings: Dosage 320 g/ha, visual scoring after 3 weeks vs untreated controls, 100% = plants have died
# How it was run: as §1
# Cyperus esculentus = assay: Pre-emergence herbicidal effect; assay type: in vivo; settings: Dosage 320 g/ha, visual scoring after 3 weeks vs untreated controls, 100% = plants have died
# How it was run: as §1
# PHBPU = assay: Post-emergence herbicidal effect; assay type: in vivo; settings: Dosage 320 g/ha, one-leaf stage, visual scoring after ca. 3 weeks vs untreated controls, 100% = plants have died
# Description: as §2, with “2.” for “The following abbreviations are used in the tables below: [table] 2.”
# Abutilon theophrasti [24] = assay: Post-emergence herbicidal effect; assay type: in vivo; settings: Dosage 320 g/ha, one-leaf stage, visual scoring after ca. 3 weeks vs untreated controls, 100% = plants have died
# Description: as §2
# Viola tricolor [25] = assay: Post-emergence herbicidal effect; assay type: in vivo; settings: Dosage 320 g/ha, one-leaf stage, visual scoring after ca. 3 weeks vs untreated controls, 100% = plants have died
# Description: as §2
Compound,Pre-emergence herbicidal effect AMARE (Amaranthus retroflexus [1]) [%],Pre-emergence herbicidal effect ECHCG (Echinochloa crus-galli [2]) [%],Pre-emergence herbicidal effect POLCO (Polygonum convolvulus [3]) [%],Pre-emergence herbicidal effect ALOMY (Alopecurus myosuroides [4]) [%],Pre-emergence herbicidal effect LOLMU (Lolium multiflorum [5]) [%],Pre-emergence herbicidal effect MATIN (Matricaria inodora [6]) [%],Pre-emergence herbicidal effect SETVI (Setaria viridis [7]) [%],Pre-emergence herbicidal effect STEME (Stellaria media [8]) [%],Pre-emergence herbicidal effect AVEFA (Avena fatua [9]) [%],Pre-emergence herbicidal effect VIOTR (Viola tricolor [10]) [%],Pre-emergence herbicidal effect VERPE (Veronica persica [11]) [%],Post-emergence herbicidal effect AMARE (Amaranthus retroflexus [12]) [%],Post-emergence herbicidal effect ECHCG (Echinochloa crus-galli [13]) [%],Post-emergence herbicidal effect ALOMY (Alopecurus myosuroides [15]) [%],Post-emergence herbicidal effect LOLMU (Lolium multiflorum [16]) [%],Post-emergence herbicidal effect MATIN (Matricaria inodora [17]) [%],Post-emergence herbicidal effect SETVI (Setaria viridis [18]) [%],Post-emergence herbicidal effect STEME (Stellaria media [19]) [%],Post-emergence herbicidal effect AVEFA (Avena fatua [20]) [%],Post-emergence herbicidal effect VERPE (Veronica persica [21]) [%],other results
"N#Cc1cnc(N[C@@H]2CCCc3ccccc32)nc1N [Example 1.30, 4-Amino-2-[(1R)-1,2,3,4-tetrahydronaphthalen-1-ylamino]pyrimidine-5-carbonitrile]",100,100,100,100,100,100,100,100,100,100,100,93,100,95,100,80,95,80,100,90,Post-emergence herbicidal effect POLCO (Polygonum convolvulus [14]): 80%; chromatographic logP ([22]; HCOOH (formic acid)): 1.92
Cc1nc(N[C@@H]2CCCc3ccccc32)nc(N)c1C#N [Example 1.18],100,100,,100,100,100,100,100,90,,100,85,87,85,87,80,90,93,,83,Pre-emergence herbicidal effect ABUTH (Abutilon theophrasti [23]): 100%; Pre-emergence herbicidal effect CYPES (Cyperus esculentus): 80%; Post-emergence herbicidal effect PHBPU (PHBPU): 80%; Post-emergence herbicidal effect ABUTH (Abutilon theophrasti [24]): 85%; Post-emergence herbicidal effect VIOTR (Viola tricolor [25]): 85%
Cc1ccc2c(c1)[C@H](Nc1ncc(F)c(N)n1)[C@@H](C)C2 [Example 1.56],100,100,95,100,100,100,100,100,100,100,100,80,90,85,93,,80,80,80,90,"Pre-emergence herbicidal effect CYPES (Cyperus esculentus): 80%; Post-emergence herbicidal effect PHBPU (PHBPU): 90%; logp (HCOOH) ([22]; HCOOH): wax-like; logp (HCOOH): 1.20; 1H-NMR (CDCl3, 400 MHZ, δ in ppm): 1.25 (d, 3H, CH3);"
